Values after ≈ are worked out from the molar mass of the structure shown. Read-outs that look alike come from different tables or passages of the source.
Experiments:
Cdr1 fused with EGFP = Cdr1 fused with EGFP (Candida albicans, UniProt Q5ANA3); assay: Microscale thermophoresis; format: binding, C. albicans
purified Cdr1 = purified Cdr1 (Candida albicans, UniProt Q5ANA3); assay: ATPase activity assay; format: biochemical, C. albicans; settings: drug ten times Cdr1 concentration (4 μM vs 0.4 μM), GDN, relative to DMSO
Chain of purified Cdr1 (Q5ANA3 whole entry): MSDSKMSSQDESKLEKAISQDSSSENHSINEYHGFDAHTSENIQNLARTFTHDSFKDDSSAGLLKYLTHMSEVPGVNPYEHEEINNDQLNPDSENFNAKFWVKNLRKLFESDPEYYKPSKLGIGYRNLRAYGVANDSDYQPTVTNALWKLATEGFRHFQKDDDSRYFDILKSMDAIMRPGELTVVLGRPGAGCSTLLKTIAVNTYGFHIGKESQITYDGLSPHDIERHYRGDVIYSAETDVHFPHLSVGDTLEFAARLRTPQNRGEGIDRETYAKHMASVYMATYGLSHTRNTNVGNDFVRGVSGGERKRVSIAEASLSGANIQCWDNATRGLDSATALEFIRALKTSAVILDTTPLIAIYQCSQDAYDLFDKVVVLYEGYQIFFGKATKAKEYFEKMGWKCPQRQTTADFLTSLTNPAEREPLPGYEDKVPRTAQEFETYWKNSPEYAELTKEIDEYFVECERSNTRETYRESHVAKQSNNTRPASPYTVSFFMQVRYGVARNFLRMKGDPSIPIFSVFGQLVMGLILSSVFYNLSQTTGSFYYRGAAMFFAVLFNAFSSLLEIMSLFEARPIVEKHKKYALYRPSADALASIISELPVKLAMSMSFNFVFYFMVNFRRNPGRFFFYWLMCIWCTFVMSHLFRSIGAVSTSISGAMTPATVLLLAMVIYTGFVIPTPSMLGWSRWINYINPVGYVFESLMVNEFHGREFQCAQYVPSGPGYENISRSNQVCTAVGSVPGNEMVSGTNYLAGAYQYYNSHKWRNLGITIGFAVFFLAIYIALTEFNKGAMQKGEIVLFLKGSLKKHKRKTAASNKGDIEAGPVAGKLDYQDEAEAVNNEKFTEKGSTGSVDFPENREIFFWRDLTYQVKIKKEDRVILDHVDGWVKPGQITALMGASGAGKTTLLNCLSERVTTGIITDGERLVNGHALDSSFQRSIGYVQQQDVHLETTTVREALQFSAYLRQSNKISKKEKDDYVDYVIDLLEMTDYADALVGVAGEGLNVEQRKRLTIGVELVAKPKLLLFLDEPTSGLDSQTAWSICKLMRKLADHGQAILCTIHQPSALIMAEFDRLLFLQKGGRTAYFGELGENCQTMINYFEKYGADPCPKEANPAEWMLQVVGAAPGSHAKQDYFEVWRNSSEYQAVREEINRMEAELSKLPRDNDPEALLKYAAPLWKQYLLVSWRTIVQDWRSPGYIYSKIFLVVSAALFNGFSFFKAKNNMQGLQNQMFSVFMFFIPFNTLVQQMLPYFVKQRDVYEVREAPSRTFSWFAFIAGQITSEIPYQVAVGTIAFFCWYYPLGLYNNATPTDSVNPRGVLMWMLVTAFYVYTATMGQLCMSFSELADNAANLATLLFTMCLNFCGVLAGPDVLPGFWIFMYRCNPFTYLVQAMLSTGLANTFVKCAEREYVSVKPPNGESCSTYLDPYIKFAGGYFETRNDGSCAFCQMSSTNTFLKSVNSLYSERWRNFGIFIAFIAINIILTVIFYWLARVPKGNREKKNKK

[1] = system: C. albicans Cdr1 overexpressed in Pdr5-deficient S. cerevisiae; assay: organism not typed; format: cell-based; settings: 48 h, read-out: IC50 (fluconazole-sensitivity, OD600nm)
[2] = system: Pdr5-deficient S. cerevisiae (empty vector); assay: microbe, parasite or virus in culture; format: cell-based; settings: Saccharomyces cerevisiae, 48 h, read-out: IC50 (fluconazole-sensitivity, OD600nm)
C. albicans Cdr2 = settings: cited from earlier work
C. albicans Cdr1 = settings: cited from earlier work
[3] = system: azole-resistant clinical C. albicans isolates; settings: cited from earlier work
[4] = system: Cdr1 overexpressed in Pdr5-knocked-out S. cerevisiae; format: cell-based

Chain of Cdr1 fused with EGFP (Q5ANA3 whole entry, the tested form may be a part): as the sequence (Q5ANA3 whole entry) above

Compound | Kd (Cdr1 fused with EGFP) | ATP hydrolysis (relative ATPase activity, mean) (purified Cdr1) | IC50 [1] | IC50 [2] | inhibition of Cdr2 (C. albicans Cdr2) | inhibition of Cdr1 (C. albicans Cdr1) | Kd (Cdr1 fused with EGFP; read-out: dissociation constant (Kd), 100 nM Cdr1, PBS 0.02% DDM, 25 °C) | synergy with fluconazole [3] | selectivity of inhibition Cdr1 vs Pdr5 ([4]; […], 1 μg/mL fluconazole, 0.1 μg/mL milbemycin oxime) | IC50 (milbemycin oxime-sensitivity, OD600nM) ([4]; with 1 µg/mL fluconazole) | IC50 (milbemycin oxime-sensitivity, OD600nM) ([4]; with 10 µg/mL fluconazole)
OC(Cn1cncn1)(Cn1cncn1)c1ccc(F)cc1F [fluconazole] | 61.4 µM | decreases slightly | 56.6 µg/mL (≈ 185 µM) | 0.31 µg/mL (≈ 1.01 µM) | – | – | – | – | – | – | –
milbemycin α25 | – | – | – | – | potent inhibition | potent inhibition | – | – | – | – | –
milbemycin oxime | – | 25.7% | – | – | – | – | 0.147 µM | strong synergistic effects with fluconazole | selectively inhibits Cdr1 rather than Pdr5 | 0.034 µg/mL | 0.009 µg/mL
